Test results as given in patent US9994551B2, “Pyridazine derivatives as RORc modulators” (Genentech, Inc., priority 2015, dated 2018).

Biological target: T1, RORc ligand binding domain (Homo sapiens, UniProt P51449)
T1 construct: host or cells: E. coli
T1 sequence (P51449 269-508 limits assumed): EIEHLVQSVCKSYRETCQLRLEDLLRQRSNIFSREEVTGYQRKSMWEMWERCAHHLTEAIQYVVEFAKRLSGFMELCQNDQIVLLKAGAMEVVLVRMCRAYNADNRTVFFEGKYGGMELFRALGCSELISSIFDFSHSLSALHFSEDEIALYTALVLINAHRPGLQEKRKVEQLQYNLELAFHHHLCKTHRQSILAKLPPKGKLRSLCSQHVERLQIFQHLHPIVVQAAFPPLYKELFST
Assay: In vitro RORc ligand binding assay (25-[3H]hydroxycholesterol displacement, filter binding)

Question: With CN1CCNC[C@H]1[C@@]12CC[C@@H](c3cc(-c4c(F)cccc4F)nnc31)C2(C)C [Compound 178, 5-(2,6-difluorophenyl)-11,11-dimethyl-1-(1-methylpiperazin-2-yl)-3,4-diazatricyclo[6.2.1.02,7]undeca-2,4,6-triene] as the molecule, how does the IC50 read?
Answer: The IC50 was 0.013 µM.

Question: For CC[C@H](C[C@@]12CC[C@@H](c3cc(-c4c(F)cccc4F)nnc31)C2(C)C)C(N)=O [Compound 4, (R)-2-(((5R,8R)-3-(2,6-difluorophenyl)-9,9-dimethyl-5,6,7,8-tetrahydro-5,8-methanocinnolin-8-yl)methyl)butanamide], which IC50 is on record?
Answer: Its IC50 is 0.0824 µM.

Question: Which IC50 does the source give for CNC(=O)c1cncc(O[C@@]23CC[C@@H](c4cc(-c5c(F)cccc5F)nnc42)C3(C)C)n1 [Compound 29, 6-(((5S,8R)-3-(2,6-difluorophenyl)-9,9-dimethyl-5,6,7,8-tetrahydro-5,8-methanocinnolin-8-yl)oxy)-N-methylpyrazine-2-carboxamide] here?
Answer: The IC50 was 0.385 µM.

Question: With CC(C)(O)CNC(=O)CO[C@@]12CC[C@@H](c3cc(-c4c(F)cccc4F)nnc31)C2(C)C [Compound 48, 2-(((5S,8R)-3-(2,6-difluorophenyl)-9,9-dimethyl-5,6,7,8-tetrahydro-5,8-methanocinnolin-8-yl)oxy)-N-(2-hydroxy-2-methylpropyl)acetamide] as the molecule, how does the IC50 read?
Answer: The IC50 was 0.0952 µM.

Question: How did the IC50 turn out when CC1(C)[C@H]2CC[C@]1([C@H]1CCCN(c3ccccn3)C1)c1nnc(-c3c(F)cccc3F)cc12 [Compound 163, 5-(2,6-difluorophenyl)-11,11-dimethyl-1-[1-(2-pyridyl)-3-piperidyl]-3,4-diazatricyclo[6.2.1.02,7]undeca-2,4,6-triene] was run?
Answer: Its IC50 is 0.027 µM.

Question: For CC1(C)[C@H]2CC[C@]1([C@H]1CCCN(C(=O)c3cc[nH]n3)C1)c1nnc(-c3c(F)cccc3F)cc12 [Compound 135, [3-[5-(2,6-difluorophenyl)-11,11-dimethyl-3,4-diazatricyclo[6.2.1.02,7]undeca-2,4,6-trien-1-yl]-1-piperidyl]-(1H-pyrazol-3-yl)methanone], which IC50 is on record?
Answer: Its IC50 is 0.0067 µM.

Question: Which IC50 does the source give for CC1(C)[C@H]2CC[C@]1([C@@H]1CN(c3ccccn3)CCO1)c1nnc(-c3c(F)cccc3F)cc12 [Compound 79, (R)-2-((5R,8R)-3-(2,6-difluorophenyl)-9,9-dimethyl-5,6,7,8-tetrahydro-5,8-methanocinnolin-8-yl)-4-(pyridin-2-yl)morpholine] here?
Answer: Its IC50 is 0.412 µM.

Question: How did the IC50 turn out when CC[C@@H](O[C@@]12CC[C@@H](c3cc(-c4c(F)cccc4F)nnc31)C2(C)C)C(=O)NCc1nnc(C)o1 [Compound 59, (R)-2-(((5S,8R)-3-(2,6-difluorophenyl)-9,9-dimethyl-5,6,7,8-tetrahydro-5,8-methanocinnolin-8-yl)oxy)-N-((5-methyl-1,3,4-oxadiazol-2-yl)methyl)butanamide] was run?
Answer: Its IC50 is 0.0453 µM.

Question: For CC1(C)[C@H]2CC[C@]1([C@@H]1CN(C3=NC(CO)CO3)CCO1)c1nnc(-c3c(F)cccc3F)cc12 (stereo in doubt) [Compound 140, [2-[2-[5-(2,6-difluorophenyl)-11,11-dimethyl-3,4-diazatricyclo[6.2.1.02,7]undeca-2,4,6-trien-1-yl]morpholin-4-yl]-4,5-dihydrooxazol-4-yl]methanol], which IC50 is on record?
Answer: Its IC50 is 0.0076 µM.

Question: CC[C@@H](O[C@@]12CC[C@@H](c3cc(-c4c(F)cccc4F)nnc31)C2(C)C)c1nnc(C)o1 [Compound 20, 2-((R)-1-(((5S,8R)-3-(2,6-difluorophenyl)-9,9-dimethyl-5,6,7,8-tetrahydro-5,8-methanocinnolin-8-yl)oxy)propyl)-5-methyl-1,3,4-oxadiazole] was tested. Which IC50 did it give?
Answer: Its IC50 is 0.0241 µM.

Question: Which IC50 does the source give for CC[C@@H](O[C@@]12CC[C@@H](c3cc(-c4c(F)cccc4F)nnc31)C2(C)C)C(=O)N1CC(C#N)C1 [Compound 37, 1-((R)-2-(((5S,8R)-3-(2,6-difluorophenyl)-9,9-dimethyl-5,6,7,8-tetrahydro-5,8-methanocinnolin-8-yl)oxy)butanoyl)azetidine-3-carbonitrile] here?
Answer: The IC50 was 0.0689 µM.

Question: How did the IC50 turn out when CC[C@@H](O[C@@]12CC[C@@H](c3cc(-c4c(F)cccc4F)nnc31)C2(C)C)C(=O)NCCS(C)(=O)=O [Compound 102, (R)-2-(((5S,8R)-3-(2,6-difluorophenyl)-9,9-dimethyl-5,6,7,8-tetrahydro-5,8-methanocinnolin-8-yl)oxy)-N-(2-(methylsulfonyl)ethyl)butanamide] was run?
Answer: The IC50 was 0.0615 µM.

Question: For CC1(C)[C@H]2CC[C@]1([C@@H]1CN(c3nc(CO)co3)CCO1)c1nnc(-c3c(F)cccc3F)cc12 [Compound 130, [2-[2-[5-(2,6-difluorophenyl)-11,11-dimethyl-3,4-diazatricyclo[6.2.1.02,7]undeca-2,4,6-trien-1-yl]morpholin-4-yl]oxazol-4-yl]methanol], which IC50 is on record?
Answer: The IC50 was 0.0088 µM.

Question: Which IC50 does the source give for CC(=O)N1CCO[C@@H]([C@@]23CC[C@@H](c4cc(-c5c(F)cccc5F)nnc42)C3(C)C)C1 [Compound 72, 1-((S)-2-((5R,8R)-3-(2,6-difluorophenyl)-9,9-dimethyl-5,6,7,8-tetrahydro-5,8-methanocinnolin-8-yl)morpholino)ethanone] here?
Answer: Its IC50 is 0.119 µM.

Question: With CC1(C)[C@H]2CC[C@]1([C@H]1CCCN(C(=O)NC3COC3)C1)c1nnc(-c3c(F)cccc3F)cc12 [Compound 157, 3-[5-(2,6-difluorophenyl)-11,11-dimethyl-3,4-diazatricyclo[6.2.1.02,7]undeca-2,4,6-trien-1-yl]-N-(oxetan-3-yl)piperidine-1-carboxamide] as the molecule, how does the IC50 read?
Answer: Its IC50 is 0.0061 µM.

Question: CCO[C@@]12CC[C@@H](c3cc(-c4c(F)cccc4F)nnc31)C2(C)C [Compound 7, (5S,8R)-3-(2,6-difluorophenyl)-8-ethoxy-9,9-dimethyl-5,6,7,8-tetrahydro-5,8-methanocinnoline] was tested. Which IC50 did it give?
Answer: The IC50 was 0.0093 µM.

Question: How did the IC50 turn out when CC[C@@H](O[C@@]12CC[C@@H](c3cc(-c4c(F)cccc4F)nnc31)C2(C)C)c1n[nH]c(CO)n1 [Compound 39, (3-((R)-1-(((5S,8R)-3-(2,6-difluorophenyl)-9,9-dimethyl-5,6,7,8-tetrahydro-5,8-methanocinnolin-8-yl)oxy)propyl)-1H-1,2,4-triazol-5-yl)methanol] was run?
Answer: The IC50 was 0.827 µM.

Question: For CC1(C)[C@H]2CC[C@]1([C@@H]1CN(C(N)=O)CCO1)c1nnc(-c3c(F)cccc3F)cc12 [Compound 68, (R)-2-((5R,8R)-3-(2,6-difluorophenyl)-9,9-dimethyl-5,6,7,8-tetrahydro-5,8-methanocinnolin-8-yl)morpholine-4-carboxamide], which IC50 is on record?
Answer: The IC50 was 0.0568 µM.

Question: CC[C@@H](O[C@@]12CC[C@@H](c3cc(-c4c(F)cccc4F)nnc31)C2(C)C)C(=O)OC [Compound 112, methyl (2R)-2-[[(1R,8S)-5-(2,6-difluorophenyl)-11,11-dimethyl-3,4-diazatricyclo[6.2.1.02,7]undeca-2,4,6-trien-1-yl]oxy]butanoate] was tested. Which IC50 did it give?
Answer: The IC50 was 0.012 µM.

Question: How did the IC50 turn out when CC1(C)[C@H]2CC[C@]1(O[C@@H](C(N)=O)C1CC1)c1nnc(-c3c(F)cccc3F)cc12 [Compound 44] was run?
Answer: Its IC50 is 0.0145 µM.

Question: With CC1(C)[C@H]2CC[C@]1(OCc1cnccn1)c1nnc(-c3c(F)cccc3F)cc12 [Compound 17, (5S,8R)-3-(2,6-difluorophenyl)-9,9-dimethyl-8-(pyrazin-2-ylmethoxy)-5,6,7,8-tetrahydro-5,8-methanocinnoline] as the molecule, how does the IC50 read?
Answer: The IC50 was 0.133 µM.

Question: How did the IC50 turn out when CC1(C)[C@H]2CC[C@]1([C@H]1CCCN(C(=O)c3cccnn3)C1)c1nnc(-c3c(F)cccc3F)cc12 [Compound 168, [3-[5-(2,6-difluorophenyl)-11,11-dimethyl-3,4-diazatricyclo[6.2.1.02,7]undeca-2,4,6-trien-1-yl]-1-piperidyl]-pyridazin-3-yl-methanone] was run?
Answer: Its IC50 is 0.0071 µM.

Question: Which IC50 does the source give for CC(=O)N1CCN(C)[C@H]([C@@]23CC[C@@H](c4cc(-c5c(F)cccc5F)nnc42)C3(C)C)C1 [Compound 177, 1-[3-[5-(2,6-difluorophenyl)-11,11-dimethyl-3,4-diazatricyclo[6.2.1.02,7]undeca-2,4,6-trien-1-yl]-4-methyl-piperazin-1-yl]ethanone] here?
Answer: Its IC50 is 0.015 µM.

Question: Which IC50 does the source give for CC(=O)N1CCC[C@H]([C@@]23CC[C@@H](c4cc(-c5c(F)cccc5F)nnc42)C3(C)C)C1 [Compound 98, 1-((R)-3-((5R,8R)-3-(2,6-difluorophenyl)-9,9-dimethyl-5,6,7,8-tetrahydro-5,8-methanocinnolin-8-yl)piperidin-1-yl)ethanone] here?
Answer: Its IC50 is 0.139 µM.

Question: For CC1(C)[C@H]2CC[C@]1([C@H]1CCCN(C(N)=O)C1)c1nnc(-c3c(F)cccc3F)cc12 [Compound 120, 3-[5-(2,6-difluorophenyl)-11,11-dimethyl-3,4-diazatricyclo[6.2.1.02,7]undeca-2,4,6-trien-1-yl]piperidine-1-carboxamide], which IC50 is on record?
Answer: The IC50 was 0.0049 µM.

Question: How did the IC50 turn out when CCC[C@H](O[C@@]12CC[C@@H](c3cc(-c4c(F)cccc4F)nnc31)C2(C)C)C(N)=O [Compound 50, (S)-2-(((5S,8R)-3-(2,6-difluorophenyl)-9,9-dimethyl-5,6,7,8-tetrahydro-5,8-methanocinnolin-8-yl)oxy)pentanamide] was run?
Answer: The IC50 was 0.2 µM.

Question: How did the IC50 turn out when CC1(C)[C@H]2CC[C@]1([C@H]1CCCN(c3cccc(=O)[nH]3)C1)c1nnc(-c3c(F)cccc3F)cc12 [Compound 174, 6-[3-[5-(2,6-difluorophenyl)-11,11-dimethyl-3,4-diazatricyclo[6.2.1.02,7]undeca-2,4,6-trien-1-yl]-1-piperidyl]-1H-pyridin-2-one] was run?
Answer: Its IC50 is 0.036 µM.

Question: Which IC50 does the source give for CC(C)(C)OC(=O)N1CCN[C@H]([C@@]23CC[C@@H](c4cc(-c5c(F)cccc5F)nnc42)C3(C)C)C1 [Compound 62, (R)-tert-butyl 3-((5R,8S)-3-(2,6-difluorophenyl)-9,9-dimethyl-5,6,7,8-tetrahydro-5,8-methanocinnolin-8-yl)piperazine-1-carboxylate] here?
Answer: Its IC50 is 0.136 µM.
